The values below come from patent US5080906A, “Method and composition for oral administration of N-acetylcysteine” (Zambon Group, S.p.A., priority 1989, dated 1992).

Where a name gives a salt, the structure may show the parent alone. Read-outs that look alike come from different tables or passages of the source.

The conditions of data set [1]: THAM salt; result in words; cited from earlier work.
On the set-up of data set [2]: species or system Male Beagle dogs. To be noted: dog, in vivo, po, 50 mg/kg. Here is the method: (§1) Male Beagle dogs were fasted overnight and were divided into 4 groups of 4 animals each. The four groups were treated orally with different NAC solutions according to the following scheme: […] For each group of animals the dose of NAC ([…]) contained an amount of ^14 C-NAC equal to 20 μCi/kg. Blood samples were withdrawn by a heparinized syringe just before the treatment and 10, 20, 30, 45, 60, 120, 240, 360, 480 and 1,440 minutes after treatment. The blood samples were treated and stored according to the same procedure described in Example 1.

The next data set in a line: in vivo. As to conditions: dog, po, 50 mg/kg. Set-up: species or system Male Beagle dogs. Here is the method:
as §1

A short description of data set [3]: Plasma level of unmodified NAC after oral administration of NAC solutions to rats (GC-MS). In kind it is in vivo, Sprague Dawley rats. As to conditions: rat, 300 mg/kg NAC (100 μCi/kg 3H-NAC), 0-8 h, * p < 0.005 (Student's t) for NAC-THAM 1:1, read-out: AUC0-8 h, plasma NAC (total unmodified NAC). Here is the method: Sprague Dawley rats after overnight fast were divided into 7 groups of 33 animals each. These seven groups of animals were treated with different NAC solutions by oral route according to the following scheme: […] Blood samples were withdrawn just before the treatment and 15, 20, 45, 60, 90, 120, 240, 360, 480 and 1,440 minutes after treatment, via a heparinized syringe. The blood was immediately transferred into plastic tubes containing sodium dithionite (1 mg/5 μl) and 0.02N sodium EDTA (200 μl ). The plasma was separated by centrifugation at 5,000×g at 4° C. for 20 minutes and the samples thus obtained were stored at -20° C. until the analysis. […] The samples were kept at 37° C. for one hour and then an acetone:formic acid=4:1 (1 ml) mixture was added. The proteins were separated at 20,000×g for 20 minutes by centrifugation. To the supernatant 2M HCl (200 μl) was added and then the NAC was extracted twice with ethyl acetate (6 ml). […] At the end of the reaction, excess isopropanol was eliminated and the samples were reacted with 3:1 ethyl acetate:pentafluoropropionic anhydride (200 μl) at 60° C. for 30 minutes. […] In Table 1 the plasma concentrations of NAC, expressed as AUC0-8h, the total NAC detected expressed as g/l, are reported for each group of animals and treatment regimen.

Data set [4] can be described thus: Total radioactivity in plasma after oral 3H-NAC in rats. In kind it is in vivo, Sprague Dawley rats. To be noted: rat, 300 mg/kg NAC (100 μCi/kg 3H-NAC), 0-24 h. Here is the method:
Sprague Dawley rats after overnight fast were divided into 7 groups of 33 animals each. These seven groups of animals were treated with different NAC solutions by oral route according to the following scheme:
Group 1-NAC (300 mg/kg) dissolved in water (10 ml/kg)
Group 5-NAC (300 mg/kg) and THAM (222.7 mg/kg) dissolved in water (10 ml/kg); molar ratio 1:1
For each group of animals the NAC dose (300 mg/kg) contained ^3 H-NAC in an amount yielding 100 μCi/kg. Blood samples were withdrawn just before the treatment and 15, 20, 45, 60, 90, 120, 240, 360, 480 and 1,440 minutes after treatment, via a heparinized syringe. The blood was immediately transferred into plastic tubes containing sodium dithionite (1 mg/5 μl) and 0.02N sodium EDTA (200 μl ). The plasma was separated by centrifugation at 5,000×g at 4° C. for 20 minutes and the samples thus obtained were stored at -20° C. until the analysis.
Samples of plasma (50 μl) were added to Lumagel (10 ml), were stirred and were then allowed to stand in the scintillation counter (Beckman LS 8100) at 15° C. for 4 hours. Radioactivity was measured after the stabilization time.
The total radioactivity in plasma after administration of 300 mg/kg of NAC (containing 100 μCi/kg of ^3 H-NAC) (group 1) and after administration of the same amount of NAC with THAM in the ratio 1:1 (group 5) are reported in Table 2.

The conditions of data set [5]: result in words; cited from earlier work.

Turning to `C[C@@H]1O[C@@H]1P(=O)(O)O` [THAM salt of the antibiotic Fosfomycin], in data set [1], the bioavailability entry was “better bioavailability”.
Regarding `CC(=O)N[C@@H](CS)C(=O)O` [NAC-lysinate, NAC lysinate], in data set [2], the “total amount of absorbed NAC compared with NAC as such” value was “not different” and the “AUC0-24 h, total radioactivity in plasma” value is on record as 1247.23 ± 185.18 mghl^-1. In “in vivo”, the “AUC0-.infin., plasma NAC (unmodified)” value came out at 73.37 ± 10.33 mgh/l and the “amount of unmodified NAC in plasma compared with NAC alone” value is “do not provide plasma levels meaningfully different from those of NAC itself”.
As for `CC(=O)N[C@@H](CS)C(=O)O` [NAC, N-acetylcysteine], the AUC(0-t) at 8 h in data set [3] turned out to be 105000 ± 3000 ng·h/mL. Besides, the figures for the “AUC0-24 h, total radioactivity in plasma” value in data set [2] and in data set [4] were 1864.13 ± 856.57 mghl^-1 and 4048.3 ± 105.9 mgh/l, respectively. For the same molecule, in the data set “in vivo” (AUC0-.infin., plasma NAC (unmodified)), the AUC(0-inf) came to 57500 ± 7290 ng·h/mL. Also, in data set [5], the solubility entry is “soluble”.

The term AUC(0-inf) denotes total exposure, with the tail of the curve extrapolated. The low end stands for less exposure, the high end for more exposure.
